Values joined by “and” are separate entries in the source; they are usually repeats but may differ in a detail not shown here. Equal entries are not always repeated.
Assays:
[1] = test system: T. b. brucei Lister strain 427 bloodstream form (BSF); experiment: In vitro activity assay for T. brucei (resazurin growth inhibition); format: cell-based; conditions: Trypanosoma brucei
[2] = test system: L. donovani intracellular amastigotes; set-up: method as in PMID 31897791; conditions: J774 macrophages as host cells; cited from earlier work
[3] = test system: THP-1 human monocyte cell line; experiment: Host cell toxicity in the L. donovani amastigote assay; format: cell-based; conditions: 3 days of compound incubation; Figure 2F
Experimental: The THP-1 human monocyte cell line was grown in RPMI-1640 medium (Welgene, Gyeongsangbuk-do, Republic of Korea) supplemented with 10% FBS and 1% P/S. For differentiation, THP-1 cells were treated for 3 days with 50 ng/mL of PMA [20]. […] An image analysis was performed as described in the T. cruzi assay (Figure S2).

[4] = test system: intracellular T. cruzi Dm28c amastigotes in U2OS; experiment: T. cruzi intracellular amastigotes assay in U2OS (image based); format: cell-based; conditions: Trypanosoma cruzi
Experimental: U2OS human osteosarcoma cells were maintained in DMEM supplemented with high glucose, 10% FBS, and 1% P/S at 37 °C with 5% CO2 in air. […] Cell images were acquired by an automated image analyzer (Operetta, Perkin Elmer Technology, Waltham, MA, USA); analysis included at least 1000 cells in five fields per well. For the imaging of infected cells and parasites, Draq-5 was observed under a 20× air objective. An image analysis algorithm (Columbus, Perkin Elmer Technology) was used to detect the Draq-5 signal in the nuclei of cells and parasites as described in a previous article and shown in Supplementary Figure S1 [20]. The number of parasites was defined by the value of the number of parasites in infected cells of the acquired image.

Which EC50 ([1]; bloodstream forms, read-out: T. brucei BSF EC50 (converted)) does the source give for `CC(C)=CCC/C(C)=C/CNCCNC1C2CC3CC(C2)CC1C3` (stereo not drawn) [SQ109, N-adamantan-2-yl-N’-((E)-3,7-dimethyl-octa-2,6-dienyl)-ethane-1,2-diamine] here?
The EC50 was 810 nM.

What about the IC50 ([1]; 3 days (72 h) of compound incubation, Figure 2A, read-out: IC50, T. brucei trypomastigote viability) of the same compound?
The IC50 was 320 nM.

What about the IC50 [2] of the same compound?
The IC50 was 7.17 nM and 7.2 nM.

And the “host cell (THP-1) toxicity: concentration up to which none was observed” value [3]?
The value was > 10 µM.

And the IC50 ([4]; 72 h, U2OS host cells, 3 days of compound incubation, Figure 2D, read-out: IC50, intracellular T. cruzi amastigote survival)?
Its IC50 is 610 nM.

And the EC50 ([4]; amastigotes in U2OS, read-out: T. cruzi Dm28c EC50 (AMA))?
The EC50 was 1100 nM.

— paper PMC8944987, “In Vivo Efficacy of SQ109 against Leishmania donovani, Trypanosoma spp. and Toxoplasma gondii and In Vitro Activity of SQ109 Metabolites” (Biomedicines, 2022)
